Consider two compounds from patent US20230181542A1, “METHOD AND PHARMACEUTICAL COMPOSITION FOR TREATING CHRONIC KIDNEY DISEASE” (Chengdu WenDing Technology Development Co., Ltd., priority 2020, published 2023).

For series [1] the following is noted: marketed drug, known side effects; cited from earlier work.
Series [2] has as its system rhesus monkeys with spontaneous chronic diabetic kidney disease. The series is described as follows: Proteinuria (UACR, urinary Malb and Cr-U), 4 to 6 hour urine collection. In kind it is in vivo, Macaca mulatta (Rhesus Macaque). The conditions noted are these: for UACR: Valsartan group 2.67 mg/kg oral, individual animals and Mean ± SD (baseline 61 ± 33); for UACR change rate / UACR decreased by an average of (compared with the baseline) / Malb / Cr-U: Valsartan group; for UACR change rate: individual animals and Mean ± SD, negative = decrease; for Malb: individual animals and Mean ± SD (baseline 76.1 ± 114.7); for Cr-U: individual animals and Mean ± SD (baseline 90.9 ± 108.5). As to the method:
The details of the dosing regime of each group are described below, wherein the route of administration was oral administration. The baseline period was 1 month, followed by continuous oral administration for 58 days. […] Urinary albumin excretion rate (UACR): 4 h to 6 hours urine was collected and detected for urinary microalbumin (Malb) and urinary creatinine (Cr-U), followed by calculation of UACR value. Detection was performed one time before administration, and at designated times (such as once at D30 and once at […]) after administration. UACR=Malb/Cr-U. Urine sample collection method: Animals were fasted overnight before the operation of collecting urine. On the day of operation, animals were transferred to a metabolic cage, followed by collecting all urine excreted within 4 to 6 hours into a urine collection bag. Detection method: see Tables 3-2 and 3-3 Effects on urinary albumin excretion rate (UACR) are shown in FIG. 1, FIG. 2 and Table 4-1. […]

The test system is the same in series [3]. The series is described as follows: Blood pressure (SBP/DBP) after anesthesia. In kind it is in vivo, Macaca mulatta (Rhesus Macaque). Conditions: Valsartan group. As to the method: (§1) The details of the dosing regime of each group are described below, wherein the route of administration was oral administration. The baseline period was 1 month, followed by continuous oral administration for 58 days.
Blood pressure: blood pressure was detected after anesthesia, including systolic blood pressure (SBP), diastolic blood pressure (DBP), mean blood pressure (MBP) and heart rate (HR). Detection was carried out 1 time before administration and 1 time at D58 (end of administration).
Detection method: Animals were anesthetized by intramuscular injection of 15 mg/kg ketamine hydrochloride and then placed in a supine position, followed by being tied with a cuff of appropriate size according to the corresponding standard. A blood oxygen probe was clamped on a finger or toe (except the left hand) of the animal, with the red photosensitive surface on the side of the finger pad. The blood pressure of the animal was continuously detected 3 times in automatic mode with an interval of 1 minute. If the differences in the SBP, DBP and MBP of the three times were less than 15 mmHg, the measurement completed, otherwise the measurement repeated.
Detection indicators: systolic blood pressure (SBP), diastolic blood pressure (DBP), mean blood pressure (MBP) and heart rate (HR).
Instrument: GE B40i electrophysiological monitor.

The test system is the same in series [4]. The series can be described thus: Glomerular filtration rate eGFR calculated from Cr-P and CysC. Type of series: in vivo, Macaca mulatta (Rhesus Macaque). Conditions: for eGFR change value: animals with eGFR 30 to 59, DOX+PMP+MTP groups 1# and 2# combined n = 5, Valsartan n = 3, Mean ± SD; for eGFR: Valsartan group, Mean ± SD (baseline 50 ± 7). How it is done: as §1
Glomerular filtration rate eGFR: creatinine (Cr-P), blood urea nitrogen (BUN), cystatin (CysC) were detected to calculate the eGFR value. Detections were performed once in the baseline period before administration, and at designated times (such as D14, D28, D45, and D58, etc.) after administration. In accordance with reference literature (Levey A S, Stevens L A, Schmid C H et al. A new equation to estimate glomerular filtration rate. Ann Intern Med 2009; 150:604-612), the formula for calculating eGFR was as follows: […]
Blood sample collection method: Before the blood collection operation, an animal was fasted overnight without anesthesia. After the animals were acclimatized, the backboard was gently squeezed to restrain the animal, and blood was collected through the forearm vein. After collection, sterilized dry cotton ball was used to gently press the blood collection site to stop bleeding.
Results of eGFR are shown in FIG. 3, Table 4-2 and Table 4-3. eGFR values of 30 to 59 ml/min/1.73m^2 were selected and included to analyze the changes of glomerular filtration rate.

For series [5] the test system is unchanged. The series can be described thus: Renal function markers CysC, Cr-P and BUN in blood. In kind it is in vivo, Macaca mulatta (Rhesus Macaque). Conditions: Valsartan group; for CysC: Mean ± SD (baseline 1.57 ± 0.10). How it is done: The details of the dosing regime of each group are described below, wherein the route of administration was oral administration. The baseline period was 1 month, followed by continuous oral administration for 58 days. Glomerular filtration rate eGFR: creatinine (Cr-P), blood urea nitrogen (BUN), cystatin (CysC) were detected to calculate the eGFR value. Detections were performed once in the baseline period before administration, and at designated times (such as D14, D28, […], and […], etc.) after administration. In accordance with reference literature (Levey A S, Stevens L A, Schmid C H et al. A new equation to estimate glomerular filtration rate. Ann Intern Med 2009; 150:604-612), the formula for calculating eGFR was as follows: Blood sample collection method: Before the blood collection operation, an animal was fasted overnight without anesthesia. After the animals were acclimatized, the backboard was gently squeezed to restrain the animal, and blood was collected through the forearm vein. After collection, sterilized dry cotton ball was used to gently press the blood collection site to stop bleeding. [table] CysC is an endogenous marker that reflects changes in glomerular filtration rate. Cr-P has been used as the main index of renal function for more than 40 years. In this test, glomerular filtration rate eGFR is calculate by measuring CysC and Cr-P. Although BUN was first used as an evaluation index of renal function, it could not meet the requirements of endogenous GFR markers and was only used as an auxiliary index in this test.

Each structure is given as a SMILES string. “And” between values parts separate entries of the source, which are not always exact repeats. Equal entries are not always repeated.

`CCCN[C@H]1CCc2nc(N)sc2C1` [PMP, (S)-N6-propyl-4,5,6,7-tetrahydro-1,3-benzothiazole-2,6-diamine]: the “daily dose at which the incidence of somnolence increases” value in series [1] is reported as “above 1.5 mg”.

`CCCCC(=O)N(Cc1ccc(-c2ccccc2-c2nnn[nH]2)cc1)[C@H](C(=O)O)C(C)C` [Valsartan]: the UACR in series [2] (D 30) was 59 mg/g and 84 mg/g and 20 mg/g and 21 mg/g and 46 ± 31 mg/g; in series [2] (D 58), 38 mg/g and 64 mg/g and 19 mg/g and 22 mg/g and 36 ± 20 mg/g. Further, the UACR change rate in series [2] (Baseline-D 30) was −27.11% and −14.25% and −33.78% and −42.53% and −29.41 ± 11.92%; in series [2] (Baseline-D 58), −52.26% and −34.73% (2×) and −41.10% and −40.71 ± 8.27%. For the same compound, the “UACR decreased by an average of (compared with the baseline)” value is on record as “about 30%” in series [2] (D30) and 40.71±8.27% in series [2] (D58, p<0.01 vs placebo). The Malb is 51.3 mg/L and 199.8 mg/L and 13.4 mg/L and 5.9 mg/L and 67.6 ± 90.3 mg/L in series [2] (D 30); 54.9 mg/L and 206.7 mg/L and 39.9 mg/L and 6.2 mg/L and 76.9 ± 88.9 mg/L in series [2] (D 58). For the same compound, the Cr-U in series [2] (D 30) is 87.5 mg/dL and 238.1 mg/dL and 68.3 mg/dL and 27.5 mg/dL and 105.3 ± 92.0 mg/dL; in series [2] (D 58) it was 143.0 mg/dL and 323.6 mg/dL and 206.3 mg/dL and 28.2 mg/dL and 175.3 ± 123.4 mg/dL. In series [3] (D 58, Mean ± SD (baseline 71 ± 15)), this compound registered a DBP of 63 ± 11 mmHg. In addition, the SBP in series [3] (D 58, Mean ± SD (baseline 135 ± 16)) is on record as 123 ± 12 mmHg. In addition, the “DBP decreased by an average of (compared with the baseline)” value in series [3] (D58, p<0.01 vs placebo) amounted to 8±6 mmHg. Further, the “SBP decreased by an average of (compared with the baseline)” value in series [3] (D58, p<0.05 vs placebo) amounted to 13±6 mmHg. Also, the DBP change value in series [3] (D 58 vs baseline, Mean ± SD) is −8 ± 5 mmHg. Besides, the SBP change value in series [3] (D 58 vs baseline, Mean ± SD) is reported as −13 ± 6 mmHg. Moreover, the eGFR change value was 3 ± 2 ml/min/1.73 m^2 in series [4] (D 14 minus baseline), 6 ± 7 ml/min/1.73 m^2 in series [4] (D 28 minus baseline), 5 ± 6 ml/min/1.73 m^2 in series [4] (D 45 minus baseline) and 10±7 ml/min/1.73 m^2 in series [4] (D 58 minus baseline). Besides, the eGFR in series [4] (D 14) is on record as 53 ± 7 ml/min/1.73 m^2; in series [4] (D 28), 56 ± 2 ml/min/1.73 m^2; in series [4] (D 45), 55 ± 1 ml/min/1.73 m^2; in series [4] (D 58), 60 ± 1 ml/min/1.73 m^2. For the same compound, the CR-P is reported as 1.26 ± 0.24 mg/dL in series [5] (D 14 (baseline 1.46 ± 0.29)), 1.18 ± 0.13 mg/dL in series [5] (D 28 (baseline 1.46 ± 0.29)), 1.18 ± 0.12 mg/dL in series [5] (D 45 (baseline 1.46 ± 0.29)) and 1.10 ± 0.08 mg/dL in series [5] (D 58 (baseline 1.46 ± 0.29)). Also, the BUN in series [5] (D 14 (baseline 41.9 ± 34.2)) stood at 27.1 ± 6.0 mg/dL; in series [5] (D 28 (baseline 41.9 ± 34.2)), 35.0 ± 16.6 mg/dL; in series [5] (D 45 (baseline 41.9 ± 34.2)), 37.9 ± 19.2 mg/dL; in series [5] (D 58 (baseline 41.9 ± 34.2)) it was 31.6 ± 11.3 mg/dL. For the same compound, the CysC in series [5] (D 14) was found to be 1.59 ± 0.10 mg/L; in series [5] (D 28) it was 1.53 ± 0.08 mg/L; in series [5] (D 45), 1.56 ± 0.09 mg/L; in series [5] (D 58), 1.48 ± 0.11 mg/L.
